According to article PMC7932555, “A diffusible signal factor of the intestine dictates Salmonella invasion through its direct control of the virulence activator HilD” (PLoS Pathogens, 2021):
Changes are numbered by the printed parent chain.

Columns and labels:
[1] = system: Salmonella invasion of HEp-2 cells; test: Invasion of HEp-2 cells by gentamicin protection assay; type: cell-based
Experimental: Invasion was quantified by gentamicin protection assay. HEp-2 cells were seeded into 24-well cell culture plates (~10^5/well) and allowed to attach overnight at 37° C with 5% CO2). Salmonella strains were grown overnight without aeration in LB buffered with 100 mM HEPES, pH 8.0, with antibiotics and fatty acids or control solvent. Overnight cultures were washed with sterile PBS. Bacteria were added to the HEp-2 cell monolayer (MOI 1:10), centrifuged briefly (10 minutes at 200 x g) and incubated for 1 hour at 37°C. Wells were washed three times with sterile PBS followed by addition of media with 200 μg/mL gentamicin and incubated for 1 hour. Cells were then washed three times with sterile PBS and lysed by 0.1% Triton X-100. Intracellular bacteria were enumerated by spreading lysates onto LB agar plates with appropriate selection.

HilD^K293A = target: T1, HilD^K293A (Salmonella typhimurium, UniProt P0CL08, K293A); test: EMSA of hilA promoter DNA with HilD K293A; type: biochemical; conditions: 10 nM hilA promoter DNA, 30 μM fatty acid
T1 construct: made in house; host or cells: E. coli BL21 (DE3)
T1 sequence (P0CL08 1-309 K293A): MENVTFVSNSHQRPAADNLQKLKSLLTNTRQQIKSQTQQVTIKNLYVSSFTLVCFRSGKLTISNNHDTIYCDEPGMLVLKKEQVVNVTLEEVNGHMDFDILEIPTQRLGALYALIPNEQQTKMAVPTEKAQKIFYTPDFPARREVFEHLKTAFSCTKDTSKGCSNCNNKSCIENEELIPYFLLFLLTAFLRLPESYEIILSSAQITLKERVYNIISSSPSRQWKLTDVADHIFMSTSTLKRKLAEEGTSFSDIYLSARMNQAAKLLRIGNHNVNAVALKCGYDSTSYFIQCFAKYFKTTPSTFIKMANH
Experimental: These were performed as previously described. Briefly, 10 nM hilA promoter DNA (-286 to +31) was mixed with 150 nM HilD in a binding buffer (100 mM Tris pH 7.5, 10 mM EDTA, 1M KCl, 1 mM DTT, 50% v/v glycerol). Fatty acids or control solvents were added at various concentrations. Binding reaction was performed at room temperature for 1 hour. Dye solution was added to final concentration of 1X and samples were separated on 10% acrylamide gels. DNA was stained using SYBR Safe and visualized in BioRad GelDoc imaging system.

HilD [2] = target: T2, HilD (Salmonella typhimurium, UniProt P0CL08); test: HilD half-life (degradation) assay by western blot; type: cell-based; conditions: wild type HilD-3XFLAG; grown with 20 μM fatty acid for two hours, protein expression halted
T2 construct: hilD with a C-terminal 3XFLAG tag was cloned into pWSK29 under control of the tetRA promoter; expressed in transfected cells; host or cells: Salmonella Typhimurium strain carrying pWSK29-PtetRA-hilD-3XFLAG (background with chromosomal hilD, hilC and rtsA null)
T2 sequence (P0CL08 1-309): T1 sequence (P0CL08 1-309 K293A) with A293K
Experimental: (§1) The HilD half-life was assessed as previously described. Salmonella strains having plasmids with tetracycline-inducible hilD or its mutated sequence with a C-terminal 3XFLAG tag and a sipB::lacZ fusion (for invasion gene expression assessment) were grown overnight and then diluted 1:100 into LB buffered with 100 mM MOPS (pH 6.7) with appropriate antibiotics and fatty acids or control solvents. After 2 hours of growth, aliquots were collected to quantitate sipB::lacZ expression in a β-galactosidase assay. Individual cultures were then equilibrated to an OD600 of 1.0 to ensure equal density at the half-life assay beginning point. New protein production was halted by addition of a cocktail of antibiotics (rifampin, streptomycin and spectinomycin). These cultures were incubated at 37°C and aliquots were collected every 30 minutes for 2 hours. Samples were lysed in 5X sample buffer, boiled, and immunoblotted with an anti-FLAG antibody to monitor HilD.

HilD [3] = target: T3, HilD (Salmonella typhimurium, UniProt P0CL08, K293A); test: HilD half-life (degradation) assay by western blot; type: cell-based; conditions: HilD K293A-3XFLAG; 20 μM fatty acid
T3 construct: hilD with a C-terminal 3XFLAG tag was cloned into pWSK29 under control of the tetRA promoter; expressed in transfected cells; host or cells: Salmonella Typhimurium strain carrying pWSK29-PtetRA-hilD-3XFLAG (background with chromosomal hilD, hilC and rtsA null)
T3 sequence (P0CL08 1-309 K293A): T1 sequence (P0CL08 1-309 K293A)
Experimental: as §1

HilD [4] = target: T4, HilD (Salmonella typhimurium, UniProt P0CL08, N44A); test: HilD half-life (degradation) assay by western blot; type: cell-based; conditions: HilD N44A-3XFLAG; 20 μM fatty acid
T4 construct: hilD with a C-terminal 3XFLAG tag was cloned into pWSK29 under control of the tetRA promoter; expressed in transfected cells; host or cells: Salmonella Typhimurium strain carrying pWSK29-PtetRA-hilD-3XFLAG (background with chromosomal hilD, hilC and rtsA null)
T4 sequence (P0CL08 1-309 N44A): T1 sequence (P0CL08 1-309 K293A) with N44A, A293K
Experimental: as §1

[5] = Salmonella expressing HilD K293A grown overnight with 20 μM fatty acid
[6] = Salmonella expressing HilD N44A grown overnight with 20 μM fatty acid
[7] = Salmonella expressing wild type HilD grown overnight with 20 μM fatty acid

Row | SMILES | inhibition of invasion of HEp-2 cells [1, 5] | inhibition of invasion of HEp-2 cells [1, 6] | inhibition of invasion of HEp-2 cells [1, 7] | effect on HilD binding to hilA promoter DNA (HilD^K293A) | HilD degradation (HilD [2]) | HilD degradation (HilD [3]) | HilD degradation (HilD [4]) | inhibition of invasion of HEp-2 cells ([1]; Salmonella expressing HilD Q290A grown overnight with 20 μM fatty acid)
1 | CCCCCCCCCCCCC/C=C\C(=O)O [c2-HDA, cis-2-hexadecenoic acid] | invaded HEp-2 cells despite the presence of 20 μM c2-HDA | unaffected | 8 fold | remained bound to the hilA promoter | Rapid degradation | protected from degradation | protected from degradation | 
2 | CCCCCCCCCCCCC/C=C/C(=O)O [t2-HDA, trans-2-hexadecenoic acid] | 2 fold | unaffected | 2 fold | efficiently reduced the DNA binding capacity | degraded | rapidly degraded | escaped degradation | had no effect
